{
  "source": "patent US20240374646A1",
  "about": "“COMPOSITION FOR INHIBITING INFLAMMATION OR AGING OF STEM CELLS, AND METHOD FOR INHIBITING INFLAMMATION OR AGING BY USING SAME” (MITOIMMUNE THERAPEUTICS INC., priority 2021, published 2024)",
  "format_in_all_cases": "cell-based, human",
  "key": {"[1]": {"test_system": "monocyte chemotactic protein-1 (MCP-1)", "assay": "Real-time qPCR, SASP factor MCP-1", "details": "vs MSCs exposed to TNF-α/IFN-γ; FIG. 4C", "protocol": "(§1) Real-time qPCR was performed using an Easy-Spin Total RNA Kit (iNtRON, Seongnam, Korea) to extract total RNA from hPD-MSCs and RNA concentration was adjusted to 100 ng/μL using a microplate spectrophotometer (Epoch™ Microplate Spectrophotometer, BioTek, Winooski, VT, USA), and the extracted RNA was reverse transcribed into cDNA using RT PreMix (dT20) (Bioneer, Seoul, Korea) using a SimpliAmp Thermal Cycler (Life Technologies, Carlsbad, CA, USA). Real-time qPCR was performed using a real-time PCR machine (CFX Connect, Bio-Rad, Hercules, CA, USA), SYBR Green Supermix (Bio-Rad) and the relevant primers, and all experiments were performed in triplicate for statistical analysis.\nIn the present experiment, the expression of IL-1β, IL-6, and monocyte chemotactic protein-1 (MCP-1), which are SASP-associated factors of the untreated MSC control, the TNF-α/IFN-γ-exposed MSC control (TI), and the experimental group treated with the example compound in the TNF-α/IFN-γ-exposed MSC control was analyzed by real-time qPCR. As the real-time qPCR analysis method, the same method described in Experimental Example 1-2 above was used, and the results are shown in FIGS. 4A to 4C."}, "[2]": {"test_system": "dynamin-related protein 1 (DRP1)", "assay": "Real-time qPCR, mitochondrial dynamics gene DRP1", "details": "vs TNF-α/IFN-γ-exposed MSC control (TI); FIG. 2B", "protocol": "as §1\n(§2) To investigate mitochondrial dynamics, real-time qPCR was performed to analyze the expression of dynamin-related protein 1 (DRP1), which is a mitochondrial division-related gene, and mitofusion 1 (MFN1) and mitofusion 2 (MFN2), which are […] mitochondrial membrane fusion-related genes. As the real-time qPCR analysis method, the same method described in Experimental Example 1-2 above was used, and the results are shown in FIG. 2B."}, "[3]": {"test_system": "TNF-α/IFN-γ-exposed hPD-MSCs", "assay": "Mitochondrial membrane potential and distribution, MitoSpy confocal microscopy", "details": "TNF-α/IFN-γ-exposed MSCs treated with compound; FIG. 2A", "protocol": "hPD-MSCs were stained with MitoSpy Orange CMTMRos (BioLegend, SanDiego, CA, USA) to observe mitochondrial membrane potential, and stained with […]. After 72 hours with or without […] treatment, hPD-MSCs were passaged on a gelatin-coated cover glass (Sigma, St. Louis, Missouri, USA) in 12-well plates (SPL) and stained 24 hours later. The hPD-MSCs were cultured in α-MEM containing 250 nM MitoSpy Green FM and 250 nM MitoSpy Orange CMTMRo for 30 minutes. Stained hPD-MSCs were fixed with 4% paraformaldehyde (Alfa Aesar, Ward Hill, Massachusetts, USA) for 5 minutes, and then stained with 1 μg/mL Hoechst 33342® (ThermoFisher) at room temperature for 5 minutes. Finally, the cover glass was mounted on a slide glass using a mounting solution (VectaShield, ThermoFisher) and samples were imaged with a confocal microscope (LSM880; Zeiss, Oberkochen, Germany). The fluorescence intensities of confocal images were quantified using ZEN 2018 Black and Blue edition software (Zeiss). […]"}, "AKT": {"test_system": "AKT", "assay": "Western blotting, AKT phosphorylation ratio (mTORC1 pathway)", "details": "vs MSC control exposed to TNF-α/IFN-γ; FIG. 4D", "protocol": "(§3) Further, the phosphorylation-induced activation ratios of AKT/mTOR/S6K, which represents the mTORC1 pathway, was analyzed. mTORC1 activation is known to not only induce senescence-associated phenotypes in MSCs, but also impair quiescence and sternness. In the present experiment, the phosphorylation ratio was confirmed using western blotting analysis as described below.\n(§4) Proteins were extracted with a Pro-Prep protein lysis buffer (iNtRON) and quantified by a protein quantitative analysis kit (BIOMAX, Seoul, Korea). Samples were then heated in 4× Laemmli sample buffer (Bio-Rad) containing 2-mercaptoethanol (Bio-Rad), and proteins were loaded onto an 8% sodium dodecyl sulfate polyacrylamide gel and electrophoresed at 60 V for 30 minutes, and then electrophoresed at 120 V for 1 hour. […]\n(§5) Immunoreactive bands were detected using an enhanced chemiluminescence detection reagent (Clarity™ Western blot substrate, Bio-Rad) and images of the bands were obtained using ImageSaver Version 6 (ATTO, Tokyo, Japan). The intensity of each band was analyzed with CA4 analyzer software (ATTO), and each experiment was performed in triplicate under the same conditions. […]"}, "mitofusion 1 (MFN1)": {"test_system": "mitofusion 1 (MFN1)", "assay": "Real-time qPCR, mitochondrial dynamics gene MFN1", "details": "vs TNF-α/IFN-γ-exposed MSC control (TI); FIG. 2B", "protocol": "as §1, §2"}, "S6K": {"test_system": "S6K", "assay": "Western blotting, S6K phosphorylation ratio (mTORC1 pathway)", "details": "vs MSC control exposed to TNF-α/IFN-γ; FIG. 4D", "protocol": "as §3, §4, §5"}},
  "data": [
    {"smiles": "O=S1(=O)CCN(Cc2cc(NC3CCOCC3)c3[nH]c(-c4ccccc4)cc3c2)CC1", "note": "[example compound, 5-[(1,1-dioxido-4-thiomorpholinyl)methyl]-2-phenyl-N-(tetrahydro-2H-pyran-4-yl)-1H-indole-7-amine]", "values": [
      {"measurement": "decrease of MCP-1 expression", "setting": "[1]", "value": "~15", "unit": "%"},
      {"measurement": "DRP1 expression level", "setting": "[2]", "value": "slightly reduced"},
      {"measurement": "mitochondrial membrane potential and distribution", "setting": "[3]", "value": "restored to quiescence"},
      {"measurement": "reduction of AKT phosphorylation ratio (pAKT/AKT)", "setting": "AKT", "value": "about 25%"},
      {"measurement": "MFN1 expression level", "setting": "mitofusion 1 (MFN1)", "value": "slightly reduced"},
      {"measurement": "reduction of S6K phosphorylation ratio (pS6K/S6K)", "setting": "S6K", "value": "~40", "unit": "%"}
    ]}
  ]
}
